According to patent publication US5552407A (priority 1993, dated 1996):
Entries after “also recorded” stand apart in the source; their conditions may differ. Like-named read-outs stand apart in the source and are kept apart here.

Key:
[1] = tested on: guinea pig tracheal rings; settings: atropine at 3, 10 and 30 nM; cited from earlier work
[2] = tested on: guinea pig tracheal rings; settings: cited from earlier work
muscarinic receptor = settings: cited from earlier work
[3] = tested on: guinea pig tracheal rings; test: Relaxation or tension of pre-contracted tracheal rings
[4] = tested on: guinea pig tracheal rings; test: Acetylcholine-induced contraction of isolated tracheal rings; settings: for spasmogenic activity by itself: absence of ACh; for minimal effective concentration: Cavia porcellus, 5 min
[5] = tested on: guinea pig tracheal rings; test: Histamine-induced contraction of isolated tracheal rings
squirrel monkeys = test: Whole body plethysmograph, airway conductance / bronchoconstriction in vivo; parameters: species or system squirrel monkey
Method: (§1) Squirrel monkeys or guinea pigs were restrained in a whole body plethysmograph, a sealed box with a separate face mask for each animal. A pneumotachograph and stain gauge assembly permitted the measurement of flow. The ratio of derivatives of flow to box pressure yield a measure of airway conductance (SGAW). MEG was administered at concentrations up to 15 mg/liter of air.
This was studied by exposing a population of squirrel monkeys, which were well-trained and adapted to the experimental setting, to aerosolized cholinergic agonists and then studying the effects of MEG or cocaine pretreatment on the response to cholinergic provocation.
Care was taken to exclude any other source of potential measurement artifact, including reducing dead volumes, examining for leaks, recalibration, and so forth. The particles were dehydrated to reduce their size and facilitate airway entry. The monkeys' nares were occluded to compel mouth breathing. Greater methacholine concentrations in the nebulizer were tested until dramatic decreases in heart rate occurred, consistent with significant systemic absorption of this relatively short duration cholinergic agonist.
This may reflect the antihistaminic activity of MEG observed in vitro.

[6] = tested on: guinea pig tracheal rings; test: Carbachol-induced contraction of isolated tracheal rings; settings: Cavia porcellus, 5 min, read-out: reduction of carbachol-induced contraction
[7] = tested on: chicken biventer cervicis muscle; test: Chicken biventer cervicis muscle in vitro, assay for antinicotinic activity; type: cell-based
Description: As observed by the present inventors, MEG was ineffective in altering the amplitude of tension produced by supramaximal electrical stimulation, or ACh-produced contraction of the chicken biventer cervicis muscle in vitro, an assay for antinicotinic activity (B. L. Ginsborg et al., Br. J. Pharmacol. 15:410 (1960); H. A. N. El-Fawal et al., Neurotoxicology 9:625 (1988)).

guinea pigs = test: Inhalation exposure safety in guinea pigs; type: in vivo, guinea pig
Method: as §1
Guinea pigs are known to be highly sensitive to pulmonary manipulations.

CN1[C@@H]2CC[C@H]1C[C@@H](OC(=O)C(CO)c1ccccc1)C2 (some centres unmarked) [atropine]
kind of antagonism of ACh-induced contraction [1]: competitively antagonized ACh-induced contraction
carbachol concentration at which the effect was surmountable ([2]; 10^-7 M atropine): 10^-4 M
magnitude of reduction at any given carbachol concentration, compared with MEG ([2]; 10^-7 atropine): usually less than that produced by MEG

COC(=O)[C@H]1[C@@H](OC(=O)c2ccccc2)C[C@@H]2CC[C@H]1N2C [cocaine, reference compound]
concentration with antimuscarinic properties as assayed by QNB binding (muscarinic receptor): 18 µM
effect on tissue pre-contracted with ACh ([3]; cocaine from 10^-4 M to 2×10^-3 M): further increase in dose-dependent tension
spasmogenic activity by itself [4]: did not produce tension in the absence of ACh
spasmogenic activity by itself ([4]; listed as Cocaine): did not display any spasmogenic activity
effect on maximum tension produced by ACh ([4]; cocaine 5×10^-6 M): increased the maximum tension produced
lowering of the threshold at which ACh produced tension ([4]; cocaine 5×10^-6 M): two orders of magnitude
concentration that decreased ACh-induced tension ([4]; cocaine HCl): 10^-4 M
concentrations that increased ACh-induced tension ([4]; cocaine HCl, 5 min incubation): 10^-7 to 10^-5 M
effect on maximum response relative to ACh alone ([4]; cocaine at 10^-4 M): reduced the maximum response to a third
effect on threshold for contraction elicited by ACh ([4]; cocaine at 10^-4 M): increased the threshold
effect on threshold for contraction elicited by ACh ([4]; cocaine at 10^-6 M): lowered the threshold
effect on tension produced by ACh at the highest ACh concentration ([4]; cocaine at 10^-7 M, ACh 2×10^-3 M): increased the tension
recovery of responsiveness to ACh after exposure ([4]; cocaine at concentrations below 10^-4 M): restored with no desensitization

COC(=O)C1=CCC2CCC1N2C (centres unmarked) [MEG, anhydroecgonine methyl ester]
effect on histamine threshold ([5]; MEG 10^-7): shifting the histamine threshold upwards
effect on contraction-inducing action of histamine ([5]; MEG 10^-7 and 10^-9 M): antagonized the contraction-inducing action of histamine
bronchoconstriction in response to inhaled histamine (squirrel monkeys; animals pretreated with MEG): bronchoconstriction, but only at unusually high levels
airway effect of MEG given alone by inhalation (squirrel monkeys; squirrel monkeys or guinea pigs, up to 15 mg/liter of air): Bronchoconstriction was observed
bronchoconstriction in response to aerosolized ACh or methacholine (squirrel monkeys; squirrel monkeys with extensive histories of exposure to MEG): unable to produce bronchoconstriction; also recorded: no bronchoconstriction observed
effect on rings with mechanically elevated tension [3]: failed to relax
concentrations for relaxation relative to those antagonizing ACh-induced contraction with preincubation ([3]; pre-contraction with 10^-3 ACh): two orders of magnitude higher
effect on rings pre-contracted with ACh ([3]; pre-contraction with 10^-3 ACh): dose-dependent relaxation
inhibition at 0.1 µM [6]: 50%
effect on amplitude of tension from supramaximal electrical stimulation or ACh-produced contraction [7]: ineffective
cholinergic agonist activity [4]: lack any cholinergic agonist activity
kind of antagonism of ACh-induced contraction ([4]; ACh up to 2×10^-3 M): reduced the magnitude of contraction produced by ACh without changing the tissue threshold of contraction; also recorded: could not be overcome; also recorded: non-competitively antagonized acetylcholine; also recorded: potent non-competitive cholinergic antagonist
minimal effective concentration ([4]; read-out: concentration at and above which insurmountable non-competitive antagonism was produced): ≥ 0.001 µM
minimal effective concentration ([4]; read-out: concentration at and above which peak tension produced by ACh was reduced): ≥ 0.001 µM
minimal effective concentration ([4]; read-out: lowest level showing anticholinergic properties): 0.1 µM
effect of MEG on cocaine's sensitization/potentiation of ACh ([4]; MEG 10^-7 M with cocaine 5×10^-6 M): antagonized cocaine's potentiation of acetylcholine's efficacy; also recorded: reduced the sensitization to ACh; also recorded: non-competitively antagonized ACh in the presence of cocaine sensitization
recovery of responsiveness to ACh after exposure ([4]; after washing of the preparation): full responsiveness to ACh could not be restored; also recorded: no recovery after washing of the preparation; also recorded: irreversible
mortality (guinea pigs; 14 mg/liter of air by inhalation): Only one exposed guinea pig died
margin of safety (guinea pigs; in vivo studies): wide margin of safety
